Data taken from paper PMC9851200, “Multiparameter phenotypic screening for endogenous TFEB and TFE3 translocation identifies novel chemical series modulating lysosome function” (Autophagy, 2022).
Where two headings read alike, the source gives them in different places.

Columns and labels:
Settings in all cases: PKIS2 primary screening
endogenous TFE3 = experiment: TFE3 nuclear translocation, immunocytochemistry high-content imaging; format: cell-based
endogenous TFEB = experiment: TFEB nuclear translocation, immunocytochemistry high-content imaging; format: cell-based
SH-SY5Y cells [1] = system: SH-SY5Y cells; note: reference of the scale not given here
SH-SY5Y cells [2] = experiment: Nuclear count from microscopy images (cellular growth and toxicity); note: reference of the scale not given here
SH-SY5Y cells [3] = experiment: AK (adenylate kinase) release ToxiLight cytotoxicity assay; note: reference of the scale not given here

Row | SMILES | TFE3 % (endogenous TFE3) | TFEB % (endogenous TFEB) | DQ Intensity (SH-SY5Y cells [1]; DQ Red BSA intensity) | DQ Spot (SH-SY5Y cells [1]; DQ Red BSA spot count) | Nuclear Count (SH-SY5Y cells [2]) | AK (SH-SY5Y cells [3]) | DQ Intensity (SH-SY5Y cells [1]) | DQ Spot (SH-SY5Y cells [1])
1 | CN(c1ccc(NC(=O)Nc2cccc(Cl)c2)cc1)c1ccnc(N)n1 [GW830707] | 9.81% | 11.00% | 86.00 | 87.81 | 115.77 | 94.92 | – | –
2 | O=c1cc(N2CCOCC2)nc2n(Cc3cccc(Cl)c3)ccn12 [UNC10225131A] | 11.28% | 5.81% | – | – | 104.22 | 96.90 | 103.05 | 113.71
3 | C[C@@H](Oc1cc(-n2cnc3ccc(-c4ccncc4)cc32)sc1C(N)=O)c1ccccc1Cl [UNC10225348A] | 36.52% | 10.36% | – | – | 41.11 | 91.16 | 133.73 | 158.98
4 | Nc1ncnc2c1nc(-c1ccccc1)n2-c1ccccc1 [UNC10225340A] | 8.63% | 8.74% | – | – | 115.47 | 115.76 | 122.27 | 108.09
5 | CSc1ccc(-c2nc3n(c2-c2ccncc2)CCC3)cc1 [UNC10225486A] | 13.99% | 5.52% | 119.41 | 102.53 | 91.88 | 80.57 | – | –
6 | Cc1cc(NCC(c2ccccc2)c2ccccc2)nc(NCc2ccc(C(F)(F)F)cc2)n1 [GW497681] | 31.99% | 10.26% | 118.39 | 90.21 | 83.96 | 143.14 | – | –
7 | COc1cccc(NC(=O)NC2CCN(c3ccnc(Nc4ccc(F)cc4)n3)C2)c1 (stereo not drawn) [GSK1379721] | 13.36% | 3.00% | 94.47 | 102.23 | 112.40 | 103.41 | – | –
8 | CN(c1ccc(NC(=O)Nc2cc(C(F)(F)F)ccc2F)cc1)c1ccnc(Nc2ccc(S(N)(=O)=O)cc2)n1 [GW809893] | 18.55% | 22.40% | 76.59 | 83.26 | 46.13 | 111.00 | – | –
9 | O=C(NCC1CC1)c1ccc(-c2cc(C(=O)NC3CC3)ccc2F)cc1 [UNC10224986A] | 10.56% | 5.16% | – | – | 97.72 | 72.27 | 92.71 | 109.74
10 | CN(c1ccc(NC(=O)N2CCN(CCCN3CCOCC3)CC2)cc1)c1ccnc(Nc2ccc(CS(C)(=O)=O)cc2)n1 [GW830899] | 11.27% | 7.11% | 91.97 | 98.21 | 123.35 | 75.66 | – | –
11 | CC(C)(C)n1cnc2c(N)ncnc21 [UNC10225362A] | 7.46% | 5.16% | – | – | 45.84 | 102.90 | 122.93 | 124.24
12 | COc1cccc(CNC(=O)NC2CCN(c3ccnc(Nc4ccc(F)cc4)n3)C2)c1 (stereo not drawn) [GSK1379723] | 22.56% | 8.63% | 104.41 | 106.33 | 83.60 | 98.00 | – | –
13 | NS(=O)(=O)c1cccc(-c2ccc3ncc(N4CCOCC4)nc3c2)c1 [UNC10225400A] | 6.51% | 4.14% | 83.02 | 88.90 | 118.72 | 95.42 | – | –
14 | COc1ccc(Nc2nccc(N3CCC(NC(=O)Nc4cc(C)ccc4C)C3)n2)cc1 (stereo not drawn) [GSK1379741] | 9.28% | 3.59% | 91.14 | 90.28 | 115.70 | 100.67 | – | –
15 | FC(F)(F)c1ccc(/C=C/c2cncnc2Nc2ccc3[nH]c(Cc4ccccc4)nc3c2)cc1 [UNC10225096A] | 12.52% | 6.39% | 116.48 | 101.82 | 103.45 | 102.23 | – | –
16 | Cc1ccccc1CC(=O)N1CCc2cc(-c3cn(C)c4ncnc(N)c34)ccc21 [UNC10225254A] | 19.37% | 10.80% | – | – | 109.34 | 77.66 | 93.20 | 89.69
17 | CC(C)(C)c1ccc(-n2cnc3c(N)ncnc32)cc1 [UNC10225367A] | 12.53% | 8.78% | – | – | 71.05 | 79.86 | 128.98 | 104.53
